# Values of other authors as cited in patent US20080112910A1, “Cool feeling composition, cool feeling auxiliary composition, and use thereof” (priority 2002, published 2008).
# Conditions: as compared with menthol
structure (smiles),measurement,value
COC(=O)c1ccccc1O [methyl salicylate],stimulation of cool feeling,very weak
same,stimulation of hot feeling,strong
